Entries after “also recorded” stand apart in the source; their conditions may differ. Peptide text beside a SMILES is read from it. * marks the point of attachment. Cbz = O=C(OCc1ccccc1)*; CH2F = FC*
Tests used:
IL-1β processing = IL-1β processing in infected human bladder epithelial cells with caspase inhibition (Western blot); format: cell-based; conditions: human bladder epithelial cells infected with acute cystitis strains, 4 h, pre-incubated with inhibitor 100 μM, 30 min
Procedure: Cells were cultured as described above, but in particular in 6-well plates (7×10^5 cells/well, Thermo Fisher Scientific), lysed with RIPA lysis buffer, supplemented with protease and phosphatase inhibitors (Roche Diagnostics). They may then be fractionated using NE-PER Nuclear and Cytoplasmic extraction reagents (Thermo Scientific). For Caspase inhibition, cells were pre-incubated with Z-VAD(OMe)-FMK (#BML-P416-0001, Enzo Life Science, 100 μM, 30 min). Supernatants were filtered and concentrated by trichloroacetic acid precipitation, followed by acetone desiccation. […] Bands were quantified by ImageJ. […]
Cell lysates and supernatants from infected cells were subjected to Western blot analysis, with antibodies specific for IL-1β. Two fragments of approximately 29 kDa and 16-18 kDa were detected, corresponding to the N-terminal pro-piece and mature IL-1β.

IL-1β = IL-1β in urine of treated infected Asc−/− mice (Western blot analysis of urine samples); format: in vivo; conditions: CFT073, IL-1RA (Anakinra) 1 mg i.p. daily
Procedure: IL-1β, IL-6 and IL-8 concentrations in filtered supernatants (Syringe Filter w/0.2 um PES, VWR) were determined by Immulite 1000 (Siemens) and Il-1β concentrations in cell supernatants or urine by Human or Mouse Il-1b/IL-1F2 DuoSet ELISA kits (R&D Systems). Urine MMP-7 levels were quantified with Human total MMP-7 Immunoassay Quantikine® ELISA (R&D Systems).
Cells were cultured as described above, but in particular in 6-well plates (7×10^5 cells/well, Thermo Fisher Scientific), lysed with RIPA lysis buffer, supplemented with protease and phosphatase inhibitors (Roche Diagnostics). They may then be fractionated using NE-PER Nuclear and Cytoplasmic extraction reagents (Thermo Scientific). For Caspase inhibition, cells were pre-incubated with Z-VAD(OMe)-FMK (#BML-P416-0001, Enzo Life Science, 100 μM, 30 min). Supernatants were filtered and concentrated by trichloroacetic acid precipitation, followed by acetone desiccation. […] Bands were quantified by ImageJ.
To address the contribution of MMP-7 to pathology, Asc^−/− mice were also treated with an MMP inhibitor (Batimastat), (0.5 mg in 100 μl of PBS i.p. 30 minutes before, first three and last three days of infection, FIG. 6A). […] By immunohistochemistry, some retention of unprocessed IL-1β in bladder tissue was detected, consistent with the need for MMP-7 and IL-1R to secrete mature IL-1β.

[1] = system: Asc^−/− mice infected with E. coli CFT073; assay: Acute cystitis immunotherapy in the experimental urinary tract infection model (Asc−/− mice infected with E. coli CFT073); format: in vivo; conditions: for macroscopic bladder pathology, edema and hyperemia: vs untreated
[2] = CFT073, Anakinra 1 mg i.p. daily, 7 days

Molecule	inhibition of IL-1β processing (IL-1β processing)	mature IL-1β in urine (IL-1β)	mucosal integrity [1, 2]	mucosal neutrophil infiltrate [1, 2]	urine neutrophil numbers ([1]; CFT073, Anakinra 1 mg i.p. daily, 7 days after infection)	pathology in bladder tissue sections ([1]; CFT073, Anakinra 1 mg i.p. daily, 7 days, H&E)	macroscopic bladder pathology, edema and hyperemia [1, 2]	macroscopic bladder pathology, edema and hyperemia ([1]; CFT073, Anakinra 1 mg i.p. daily, 7 days, listed as IL-1RA)	bacterial counts ([1]; CFT073, Anakinra 1 mg i.p. daily, urine, 7 days after infection)	therapeutic effect / protection from acute cystitis ([1]; E. coli CFT073, Anakinra 1 mg in 100 μl PBS i.p. 30 min before and daily after infection, 7 days, vs untreated Asc−/− mice)
COC(=O)C[C@H](NC(=O)[C@H](C)NC(=O)[C@@H](NC(=O)OCc1ccccc1)C(C)C)C(=O)CF [Z-VAD, Z-VAD(OMe)-FMK] (Cbz-Val-Ala-Asp(OMe)-CH2F)	about 20%									
Anakinra: IL-1 receptor antagonist, Anakinra (Kineret, SOBI)		loss	maintained	prevented	low	marked reduction	protected	prevented	remained elevated	dramatic therapeutic effect; also recorded: protects; also recorded: prevented
